In patent publication US20190134129A1, “METHOD FOR ALLEVIATING ULTRAVIOLET DAMAGE WITH ETHYL ACETATE-EXTRACTED PRODUCT OF SEDUM FORMOSANUM” (Sinotai Oncology Associate., Ltd., priority 2017, published 2019):

System: HaCaT cells
Test: Apoptosis assay (FITC Annexin V/PI) of UV- or X-ray-irradiated HaCaT cells
Assay type: cell-based, human
Settings: UV 50 mJ/cm^2, 48 hours
From the text: A. Test Sample Pretreatment and Irradiation Treatment

Structure (SMILES) | Apoptosis percentage (%) (125 μg/mL pretreatment) | Apoptosis percentage (%) (250 μg/mL pretreatment)
O=c1c(O[C@@H]2O[C@H](CO)[C@@H](O)[C@H](O)[C@H]2O)c(-c2ccc(O)cc2)oc2cc(O)cc(O)c12 [astragalin] | 22.37 ± 3.32% | 69.07 ± 5.07%
O=c1cc(-c2ccc(O)cc2)oc2c([C@@H]3O[C@H](CO)[C@@H](O)[C@H](O)[C@H]3O)c(O)cc(O)c12 [vitexin] | 20.00 ± 0.73% | 70.93 ± 1.52%
